The text below walks through data of patent US20260138959A1, “QUINAZOLINE DERIVATIVE COMPOUND AND USE THEREOF” (VORONOI INC., priority 2021, published 2026).

The subject of one test is Ba/F3-c-KIT(D816V). The experiment in a line: Proliferation inhibitory activity on Ba/F3 cell (CellTiter-Glo, 72 hours), c-KIT(D816V). The note with it: Mus musculus, BaF3, read-out: Ba/F3 (nM) c-KIT (D816V) (GI50 class). Type of test: cell-based. The procedure, abridged: (§1)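 Ba/F3 lines (TEL-PDGFRα WT, TEL-PDGFRβ WT, c-KIT D816V, V560G/D816V, D814Y) were seeded at 3×10^3 cells/well and exposed to 12-point, 3-fold dilutions (final 0.00005-10 μM) for 72 h at 37 °C. CellTiter-Glo signal was read after about 10 min mixing; GI50 (nM) was calculated relative to vehicle.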

In another test the test system is c-KIT V560G/D816V. The experiment in a line: Proliferation inhibitory activity on Ba/F3 cell (CellTiter-Glo, 72 hours), c-KIT V560G/D816V. It counts as cell-based. The note with it: Mus musculus, BaF3, c-KIT V560G/D816V cells, read-out: Cell (nM) c-KIT V560G/D816V (GI50 class). The procedure, abridged:
as §1

A further test concerns c-KIT D814Y. Nature of the test: Proliferation inhibitory activity on Ba/F3 cell (CellTiter-Glo, 72 hours), c-KIT D814Y. The note with it: Mus musculus, BaF3, c-KIT D814Y cells, read-out: Cell (nM) c-KIT D814Y (GI50 class). It counts as cell-based. The procedure:
(§2) Ba/F3-TEL-PDGFRα(WT), Ba/F3-TEL-PDGFβ(WT), Ba/F3-c-KIT(D816V) (Kyinno, #KC-0138), c-KIT V560G/D816V, c-KIT D814Y were seeded at 3×10^3/100 μl/well in a clear bottom white 96-well plate. A culture solution containing compounds of 12 concentrations (0.00001-2 mM) serially diluted in 3 folds and the DMSO control group was added at 0.5 μl/well each to a final concentration of 0.00005-10 μM, and then incubated in a CO2 incubator at 37° C. for 72 hours. After 72 hours, the plate treated with the compound was taken out, CellTiter-Glo® Assay (Promega) solution was treated with 100 μl/well, followed by mixing well. After mixing well for about 10 minutes at room temperature, […] was measured using a microplate reader. The data were presented as percentages in proportion to treated cells based on the vehicle, GI50 (nM) values were calculated using GraphPad Prism 8.3.0 (GraphPad software Inc., San Diego).
(§3) The inhibitory activities of Ba/F3 expressing PDGFR-α, PDGFR-β, c-KIT(D816V), c-KIT V560G/D816V, and c-KIT D814Y measured as described above were measured and shown in Table 7 below (A: GI50≤200 nM; B: 200 nM<GI50≤500 nM; C: GI50>500 nM).

In the next test the target is T1, human PDGFR-α(wt) (Homo sapiens, UniProt P16234).
T1 construct: purchased Signalchem P12-18G
T1 sequence (P16234 24-1089): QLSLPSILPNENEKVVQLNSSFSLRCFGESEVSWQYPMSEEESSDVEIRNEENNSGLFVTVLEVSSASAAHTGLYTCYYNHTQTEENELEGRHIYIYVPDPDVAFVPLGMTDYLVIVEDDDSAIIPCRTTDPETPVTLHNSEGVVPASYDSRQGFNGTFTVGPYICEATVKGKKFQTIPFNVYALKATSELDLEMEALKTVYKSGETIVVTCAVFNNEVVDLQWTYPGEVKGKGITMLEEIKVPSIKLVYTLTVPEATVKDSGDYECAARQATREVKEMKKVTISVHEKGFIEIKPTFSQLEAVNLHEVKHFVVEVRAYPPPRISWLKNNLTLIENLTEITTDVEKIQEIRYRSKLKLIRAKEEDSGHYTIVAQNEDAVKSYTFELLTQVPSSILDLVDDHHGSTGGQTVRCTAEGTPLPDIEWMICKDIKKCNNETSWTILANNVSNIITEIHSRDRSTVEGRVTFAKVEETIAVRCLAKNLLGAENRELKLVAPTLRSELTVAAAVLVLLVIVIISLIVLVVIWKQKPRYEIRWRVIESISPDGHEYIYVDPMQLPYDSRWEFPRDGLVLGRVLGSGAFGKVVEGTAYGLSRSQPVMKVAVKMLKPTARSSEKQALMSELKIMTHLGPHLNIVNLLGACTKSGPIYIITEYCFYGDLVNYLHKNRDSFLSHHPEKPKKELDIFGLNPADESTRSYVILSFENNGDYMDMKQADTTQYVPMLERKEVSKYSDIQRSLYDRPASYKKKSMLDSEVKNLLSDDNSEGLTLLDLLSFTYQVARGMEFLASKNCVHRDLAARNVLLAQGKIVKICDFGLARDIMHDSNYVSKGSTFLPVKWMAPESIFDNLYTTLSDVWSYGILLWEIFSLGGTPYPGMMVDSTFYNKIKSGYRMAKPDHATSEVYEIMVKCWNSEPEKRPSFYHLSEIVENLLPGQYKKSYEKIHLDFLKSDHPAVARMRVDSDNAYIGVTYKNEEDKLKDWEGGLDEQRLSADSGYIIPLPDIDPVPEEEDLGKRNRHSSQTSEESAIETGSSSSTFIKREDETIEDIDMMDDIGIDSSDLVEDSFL
Nature of the test: Enzyme inhibitory activity, ADP-Glo kinase assay, PDGFR-α(wt). The note with it: read-out: PDGFR-α (IC50 class). Type of test: biochemical. The procedure: In order to evaluate the inhibitory activity of the compounds synthesized according to the above examples on PDGFR-α(wt), PDGFR-β(wt), c-KIT(wt), and c-KIT(D816V) kinases, the following method was performed. The compounds of examples were reacted with purified human PDGFR-α(wt) (Signalchem #P12-18G) enzyme, human PDGFR-β(wt) (Signalchem #P13-11G) enzyme, human c-KIT(wt) (Signalchem #K06-11BG) enzyme, human c-KIT(D816V) (Signalchem #C06-12LG) enzyme, and the enzyme inhibitory abilities were evaluated by the following method.
The reaction buffer was used as a composition of 40 mM Tris-HCl pH7.4, 20 mM MgCl2, 0.5 mg/ml BSA, 50 μM DTT, and the reactions of all the tests were carried out on the reaction buffer. The compound was diluted in 12 steps using a serial dilution method from a 10 mM DMSO stock, and the enzyme activity was measured at a final compound concentration of 10˜0.00005645 μM. During the test, the enzyme activity was confirmed using in vitro ADP-Glo™ kinase assay (Promega) after reacting with the proper concentration of human PDGFR-α(wt) enzyme, human PDGFR-β(wt), human c-KIT(wt) enzyme, and human c-KIT(D816V) enzyme with purified ATP and enzyme substrate at 25° C. for 1˜2 hours. At a ratio of 2:2:1, an enzyme-active reaction solution, an ADP-Glo reaction solution, and an enzyme-active detection solution were reacted to measure the inhibition of the enzyme's activity with luminoscence. Based on the […] of the enzyme activity of the solvent control that was not treated with the compound, the degree of enzyme activity inhibition was calculated according to the treatment concentration of each compound, and the concentration of each compound that inhibits 50% of enzyme activity was determined as IC50 (nM) value and the value was obtained by using GraphPad Prism 8.3.0 (GraphPad software Inc., San Diego) software. (A: IC50≤50 nM; B: 50 nM<IC50≤100 nM; C: 100 nM<IC50≤500 nM; D: IC50>500 nM).

For another test, the target named is T2, human PDGFR-β(wt) (Homo sapiens, UniProt P09619).
T2 construct: purchased Signalchem P13-11G
T2 sequence (P09619 33-1106): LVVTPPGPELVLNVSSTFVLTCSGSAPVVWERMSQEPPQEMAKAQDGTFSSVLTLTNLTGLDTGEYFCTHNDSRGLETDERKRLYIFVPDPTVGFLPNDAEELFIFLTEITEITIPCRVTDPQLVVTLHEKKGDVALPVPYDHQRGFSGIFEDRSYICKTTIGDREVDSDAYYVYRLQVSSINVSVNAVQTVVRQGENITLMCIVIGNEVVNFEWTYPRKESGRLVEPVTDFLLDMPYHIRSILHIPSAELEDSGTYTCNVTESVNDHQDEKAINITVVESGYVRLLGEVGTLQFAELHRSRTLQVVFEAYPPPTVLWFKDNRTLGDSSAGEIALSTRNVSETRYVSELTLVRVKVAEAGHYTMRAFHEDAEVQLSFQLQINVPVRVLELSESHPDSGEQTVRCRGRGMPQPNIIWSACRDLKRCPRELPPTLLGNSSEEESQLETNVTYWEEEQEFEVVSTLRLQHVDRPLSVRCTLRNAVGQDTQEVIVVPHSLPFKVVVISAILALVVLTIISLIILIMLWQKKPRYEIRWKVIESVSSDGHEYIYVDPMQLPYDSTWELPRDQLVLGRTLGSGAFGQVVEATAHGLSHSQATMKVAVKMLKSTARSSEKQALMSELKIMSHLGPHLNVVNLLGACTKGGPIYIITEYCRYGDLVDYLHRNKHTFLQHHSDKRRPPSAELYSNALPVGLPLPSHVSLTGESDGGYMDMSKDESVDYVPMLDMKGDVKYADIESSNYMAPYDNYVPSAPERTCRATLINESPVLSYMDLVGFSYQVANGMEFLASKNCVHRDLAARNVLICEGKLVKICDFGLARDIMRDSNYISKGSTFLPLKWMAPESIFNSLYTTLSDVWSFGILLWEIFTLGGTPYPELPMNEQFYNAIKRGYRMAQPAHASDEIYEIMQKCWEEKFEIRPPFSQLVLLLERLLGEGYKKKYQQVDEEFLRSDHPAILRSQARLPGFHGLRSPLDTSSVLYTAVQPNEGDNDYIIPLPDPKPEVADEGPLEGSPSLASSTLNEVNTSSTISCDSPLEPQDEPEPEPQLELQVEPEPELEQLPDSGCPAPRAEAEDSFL
Nature of the test: Enzyme inhibitory activity, ADP-Glo kinase assay, PDGFR-β(wt). The note with it: read-out: PDGFR-β (IC50 class). It counts as biochemical. An outline of the steps: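 Purified human kinases incubated with ATP and substrate 1–2 h at 25 °C in 40 mM Tris-HCl pH 7.4, 20 mM MgCl2, BSA, DTT, compound over 12 concentrations (10–0.00005645 μM final). ADP formed quantified by ADP-Glo luminescence; IC50 from inhibition versus DMSO control, reported in bins A–D.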

A further test concerns Ba/F3-TEL-PDGFRα(WT). Nature of the test: Proliferation inhibitory activity on Ba/F3 cell (CellTiter-Glo, 72 hours), PDGFR-α. Type of test: cell-based. The note with it: Mus musculus, BaF3, read-out: Ba/F3 (nM) Tel-PDGFRα (GI50 class). The procedure: as §2, §3
The test system of a further test is Ba/F3-TEL-PDGFβ(WT). Nature of the test: Proliferation inhibitory activity on Ba/F3 cell (CellTiter-Glo, 72 hours), PDGFR-β. Type of test: cell-based. The note with it: Mus musculus, BaF3, read-out: Ba/F3 (nM) Tel-PDGFRβ (GI50 class). The procedure: as §2, §3
In another test the test system is various kinases. The experiment in a line: Inhibitory activity against various kinases, DiscoverX scanMAX Kinase panel, % control at 1 μM. It counts as binding. The procedure:
The activities of the compounds according to the present disclosure on various enzymes were evaluated. Specifically, it was commissioned DiscoverX to measure enzyme selectivity for the compounds of Examples 3, 9, and 83 above, and the experiment was conducted using a panel for scanMAX™ Kinase analysis. Herein, a solution prepared by dissolving in DMSO at a concentration of 1 μM was used as the drug treated with the enzyme, and the control percentage (% control) was determined by the method of Equation 1 below, and the results are shown in Table 8 below.
Herein, when the calculated percentage value for each enzyme was less than 35%, it was determined to have inhibitory activity for the enzyme. Accordingly, among the series of enzymes tested, the enzymes showing the inhibitory activities of the compounds of the present disclosure are summarized and shown in Table 8 below along with the control percentages thereof. (©): less than 10%; ◯: 10% or more to less than 35%).

Where only a bound is given, the exact number is not on record here.

With `COc1cc2ncnc(-c3ccc(NC(=O)Cc4ccc(C(F)(F)F)cc4)cc3)c2cc1OCC1CCCNC1` (stereo not shown) [Example 133, N-(4-(7-methoxy-6-(piperidin-3-ylmethoxy)quinazolin-4-yl)phenyl)-2-(4-(trifluoromethyl)phenyl)acetamide], the GI50 in the test on Ba/F3-c-KIT(D816V) is not above 200 nM; with c-KIT V560G/D816V, 200 to 500 nM; in the test on c-KIT D814Y, more than 500 nM.
On to `CCN1CCC(Oc2cc3c(-c4ccc(NC(=O)Cc5ccc(C(F)(F)F)cc5)cc4)ncnc3cc2OC)C1` (stereo not shown) [Example 145, N-(4-(6-((1-ethylpyrrolidin-3-yl)oxy)-7-methoxyquinazolin-4-yl)phenyl)-2-(4-(trifluoromethyl)phenyl)acetamide], for which the GI50 is not above 200 nM in the test with Ba/F3-c-KIT(D816V), 200 to 500 nM in the test with c-KIT V560G/D816V and not above 200 nM with c-KIT D814Y.
As for `COc1cc2c(-c3ccc(NC(=O)Cc4ccc(C#N)cc4)cc3)ncnc2cc1OCCCN1CCN(C)CC1` [Example 83, 2-(4-cyanophenyl)-N-(4-(6-methoxy-7-(3-(4-methylpiperazin-1-yl)propoxy)quinazolin-4-yl)phenyl)acetamide], the IC50 on human PDGFR-α(wt) and on human PDGFR-β(wt) was not above 0.05 µM each time. Also, the GI50 in the test on Ba/F3-TEL-PDGFRα(WT), in the test with Ba/F3-TEL-PDGFβ(WT), with Ba/F3-c-KIT(D816V) and in the test on c-KIT V560G/D816V was not above 200 nM each time. In the test on various kinases (KIT), the “control percentage (% control), KIT” value is on record as “⊚”. In addition, the “control percentage (% control), KIT (A829P)” value with various kinases (KIT (A829P)) is “⊚”. The “control percentage (% control), KIT (D816H)” value in the test on various kinases (KIT (D816H)) is given as “⊚”. Moreover, the “control percentage (% control), KIT (D816V)” value with various kinases (KIT (D816V)) is reported as “⊚”. In the test with various kinases (KIT (L576P)), the “control percentage (% control), KIT (L576P)” value is recorded as “⊚”. The “control percentage (% control), KIT (V559D)” value in the test with various kinases (KIT (V559D)) is “⊚”. In addition, the “control percentage (% control), KIT (V559D, T670I)” value in the test on various kinases (KIT (V559D, T670I)) was “◯ (◯: 10% or more to less than 35%)”. The “control percentage (% control), KIT (V559D, V654A)” value with various kinases (KIT (V559D, V654A)) is recorded as “◯ (◯: 10% or more to less than 35%)”. Also, the “control percentage (% control), PDGFRA” value with various kinases (PDGFRA) is recorded as “⊚”. Besides, in the test with various kinases (PDGFRB), the “control percentage (% control), PDGFRB” value is on record as “⊚”.
As for `COc1cc2c(-c3ccc(NC(=O)C(C)(N)c4ccc(F)cc4)cc3)ncnc2cc1OCC(C)C` (stereo not shown) [Example 10, 2-amino-2-(4-fluorophenyl)-N-(4-(7-isobutoxy-6-methoxyquinazolin-4-yl)phenyl)propanamide], the IC50 was not above 0.05 µM at human PDGFR-α(wt) and 0.1 to 0.5 µM on human PDGFR-β(wt). For the same compound, the GI50 in the test with Ba/F3-TEL-PDGFRα(WT) is not above 200 nM; with Ba/F3-TEL-PDGFβ(WT), 200 to 500 nM; with Ba/F3-c-KIT(D816V) it was not above 200 nM; with c-KIT V560G/D816V it was more than 500 nM.
`CCN1CCCC(COc2cc3c(-c4ccc(NC(=O)Cc5ccc(C(F)(F)F)cc5)cc4)ncnc3cc2OC)C1` (stereo not shown) [Example 134, N-(4-(6-((1-ethylpiperidin-3-yl)methoxy)-7-methoxyquinazolin-4-yl)phenyl)-2-(4-(trifluoromethyl)phenyl)acetamide]: the GI50 with Ba/F3-c-KIT(D816V), in the test on c-KIT V560G/D816V and in the test with c-KIT D814Y was not above 200 nM in each case.
Consider `COc1cc2ncnc(-c3ccc(NC(=O)Cc4ccc(C(F)(F)F)cc4)cc3)c2cc1O[C@@H]1CCOC1` [Example 125, (R)-N-(4-(7-methoxy-6-((tetrahydrofuran-3-yl)oxy)quinazolin-4-yl)phenyl)-2-(4-(trifluoromethyl)phenyl)acetamide], for which the results for the GI50 in the test on Ba/F3-c-KIT(D816V), in the test on c-KIT V560G/D816V and in the test with c-KIT D814Y were not above 200 nM, more than 500 nM and more than 500 nM, respectively.
With `COc1cc2c(-c3ccc(NC(=O)Cc4ccc(C(F)(F)F)cc4)cc3)ncnc2cc1OCCCN1CC(N(C)C)C1` [Example 22, N-(4-(7-(3-(3-(dimethylamino)azetidine-1-yl)propoxy)-6-methoxyquinazolin-4-yl)phenyl)-2-(4-(trifluoromethyl)phenyl)acetamide], the GI50 in the test on Ba/F3-c-KIT(D816V), with c-KIT V560G/D816V and in the test with c-KIT D814Y was not above 200 nM throughout.
For `CCN1CCC(COc2cc3ncnc(-c4ccc(NC(=O)CCc5ccccc5)cc4)c3cc2OC)CC1` [Example 72, N-(4-(7-((1-ethylpiperidin-4-yl)methoxy)-6-methoxyquinazolin-4-yl)phenyl)-3-phenylpropanamide], the IC50 at human PDGFR-α(wt) and at human PDGFR-β(wt) was not above 0.05 µM throughout. The GI50 in the test on Ba/F3-TEL-PDGFRα(WT), with Ba/F3-TEL-PDGFβ(WT), in the test on Ba/F3-c-KIT(D816V) and with c-KIT V560G/D816V was not above 200 nM in each case.
Regarding `COc1cc2ncnc(-c3ccc(NC(=O)Cc4ccc(C(F)(F)F)cc4)cc3)c2cc1OCCCN1CCN(C)CC1` [Example 126, N-(4-(7-methoxy-6-(3-(4-methylpiperazin-1-yl)propoxy)quinazolin-4-yl)phenyl)-2-(4-(trifluoromethyl)phenyl)acetamide], the GI50 in the test with Ba/F3-c-KIT(D816V), in the test on c-KIT V560G/D816V and in the test on c-KIT D814Y was not above 200 nM in each case.
Consider `COc1cc2ncnc(-c3ccc(NC(=O)Cc4ccc(C(F)(F)F)cc4)cc3)c2cc1OC1CNC1` [Example 138, N-(4-(6-(azetidin-3-yloxy)-7-methoxyquinazolin-4-yl)phenyl)-2-(4-(trifluoromethyl)phenyl)acetamide], for which the GI50 is not above 200 nM with Ba/F3-c-KIT(D816V), 200 to 500 nM with c-KIT V560G/D816V and not above 200 nM in the test with c-KIT D814Y.
For the compound `COc1cc2c(-c3ccc(NC(=O)Cc4ccsc4)cc3)ncnc2cc1OCCCN1CCN(C)CC1` [Example 84, N-(4-(6-methoxy-7-(3-(4-methylpiperazin-1-yl)propoxy)quinazolin-4-yl)phenyl)-2-(thiophene-3-yl)acetamide], the IC50 at human PDGFR-α(wt) and on human PDGFR-β(wt) was not above 0.05 µM in each case. For the same compound, the GI50 in the test on Ba/F3-TEL-PDGFRα(WT), in the test with Ba/F3-TEL-PDGFβ(WT), with Ba/F3-c-KIT(D816V) and in the test on c-KIT V560G/D816V was not above 200 nM throughout.
